Like-named read-outs stand apart in the source and are kept apart here. Marks after values point to notes of the source that are not given here.

One data set relates to rat caudal artery. Nature of the data set: Rat caudal artery ring contractile force (vasoconstrictory activity). On the set-up: species or system rat (male Wistar). Summed up:
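Endothelium-denuded caudal artery rings from male Wistar rats were held at 2 g resting tension in Tyrode solution (37° C, pH 7.35, 95% O2/CO2) and isometric force was recorded. Compounds were tested at 50 μM, with contraction expressed as percent of the 90 mM KCl response.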

For data set [1], the system named is Sprague Dawley rats. Nature of the data set: In vivo lethality, intravenous injection via the tail. On the set-up: species or system rat (Sprague Dawley). Particulars: rat. On the procedure: (§1) Sprague Dawley rats (150-200 g) were used to appraise the rodenticidal activity of the compounds put forward for in vivo evaluation. Briefly, prior to administration the compounds were dissolved in 0.2 M hydrochloric acid (5% DMSO overall), to the desired dose, and without delay either injected intravenously, via the tail, or orally gavaged. All treated animals were housed in a quiet room and monitored every minute (i.v) or every 15 min (oral) to verify early signs of toxicity.

In data set [2] the test system is Sprague Dawley rats. Nature of the data set: In vivo lethality, oral gavage. Particulars: rat; for Time to Death (min) / Onset of Symptoms: mean time; for Onset of Symptoms: visual signs of distress consistent with NRB-like symptoms. On the set-up: species or system rat (Sprague Dawley). On the procedure:
as §1

For data set [3], the system named is Sprague Dawley rats. Nature of the data set: Palatability (no-choice) trial, peanut butter bait. Conditions: po, 1% w/w toxicant in peanut butter bait. Format: in vivo, rat (Sprague Dawley). The source says:
In the palatability trials, Sprague Dawley rats (ca. 250 g) were presented with 1% w/w compound (n=6) or 0.5% w/w compound (n=5) in a peanut butter bait, following 3 days ‘pre-baiting’ with a peanut butter formulation free of toxicant.

Setting [4] is: Table 1, read-out: Vasoconstriction: maximum contractile effect as a % of 90 mM KCl contraction.
The mark [5] stands for this setting: n = 6, 3 male and 3 female rats, Table 11, read-out: No of deaths (converted).
The mark [6] stands for this setting: n = 6, 3 male and 3 female rats, Table 12, read-out: No of deaths (converted).

With `COc1ccccc1C=CC(=O)OCCN1C(=O)C2C3C=C(C(O)(c4ccccc4)c4ccccn4)C(C3=C(c3ccccc3)c3ccccn3)C2C1=O` (stereo not drawn) [Compound 124, 5-(α-Hydroxy-α-2-pyridylbenzyl)-N-[2′-(2″-methoxycinnamoyloxy)ethyl]-7-(α-2-pyridylbenzylidene)-5-norbornene-2,3-dicarboximide], the melting point is 101 to 108 °C. Further, in the data set with rat caudal artery (setting [4]), the Emax is 23%.
Molecule `COc1ccc(C(=O)OCN2C(=O)C3C4C=C(C(O)(c5ccccc5)c5ccccn5)C(C4=C(c4ccccc4)c4ccccn4)C3C2=O)cc1` (stereo not drawn) [Compound 15, 5-(α-Hydroxy-α-2-pyridylbenzyl)-N-p-methoxybenzoyloxymethyl-7-(α-2-pyridylbenzylidene)-5-norbornene-2,3-dicarboximide] showed a melting point of 94 to 112 °C. In addition, in the data set with rat caudal artery (setting [4]), the Emax came to 0%. Further, the “Vasoconstriction: maximum contractile effect as a % of 90 mM KCl contraction” value in the data set with rat caudal artery (Table 4, pre-cleavage, n = 3) came to 0%.
As for `O=C1NC(=O)C2C3C(C(O)(c4ccccc4)c4ccccn4)=CC(C3=C(c3ccccc3)c3ccccn3)C12` (stereo not drawn) [endo-NRB, 5-(α-Hydroxy-α-2-pyridylbenzyl)-7-(α-2-pyridylbenzylidene)-5-norbornene-2,3-dicarboximide, reference compound], the “Vasoconstriction: maximum contractile effect as a % of 90 mM KCl contraction” value in the data set with rat caudal artery (Table 4, pre-cleavage, n = 3) is on record as 132%; in the data set with rat caudal artery (n = 3, Table 8), 132%; with rat caudal artery (n = 3, pre-cleavage, Table 6), 132%. The “In vivo lethality (i.v.)” value in the data set on Sprague Dawley rats [1] (10 mg/Kg, n = 2) is reported as “yes^f,g”; in the data set with Sprague Dawley rats [1] (10 mg/Kg, n = 2, Table 6), “yes^e,f”; in the data set with Sprague Dawley rats [1] (20 mg/Kg, n = 2), “yes^f,g”; with Sprague Dawley rats [1] (20 mg/Kg, n = 2, Table 6), “yes^e,f”; in the data set with Sprague Dawley rats [1] (20 mg/Kg, n = 3, Table 8) it was “yes^b”. For the same molecule, the “Time to Death (min)” value in the data set on Sprague Dawley rats [2] (20 mg/Kg) is 35^d min. Moreover, in the data set on Sprague Dawley rats [2] (20 mg/Kg), the “Onset of Symptoms” value was found to be 5 min. Also, the “In vivo lethality (oral)” value in the data set with Sprague Dawley rats [2] (20 mg/Kg, n = 2) was “yes^h,i”; in the data set with Sprague Dawley rats [2] (20 mg/Kg, n = 2, Table 6) it was “yes^g,h”; in the data set with Sprague Dawley rats [2] (20 mg/Kg, n = 3, Table 8), “yes^c,d”; with Sprague Dawley rats [2] (40 mg/Kg, n = 2), “yes^h,i”; with Sprague Dawley rats [2] (40 mg/Kg, n = 2, Table 6), “yes^g,h”; in the data set with Sprague Dawley rats [2] (40 mg/Kg, n = 3, Table 8) it was “yes^c,d”. The mortality at 1 % in the data set with Sprague Dawley rats [3] (setting [5]) is 66.7%; with Sprague Dawley rats [3] (setting [6]), 50%; with Sprague Dawley rats [3] (n = 6, male rats only, Table 10, read-out: No of deaths (converted)), 50%.
For the molecule `O=C(C=Cc1ccc(Cl)c(Cl)c1)OCCN1C(=O)C2C3C=C(C(O)(c4ccccc4)c4ccccn4)C(C3=C(c3ccccc3)c3ccccn3)C2C1=O` (stereo not drawn) [Compound 134, N-[2′-(3″,4″-Dichlorocinnamoyloxy)ethyl]-5-(α-hydroxy-α-2-pyridylbenzyl)-7-(α-2-pyridylbenzylidene)-5-norbornene-2,3-dicarboximide], the melting point lay within 99 to 104 °C. Also, the Emax in the data set with rat caudal artery (setting [4]) was 0%. In addition, in the data set on rat caudal artery (Table 4, pre-cleavage, n = 3), the “Vasoconstriction: maximum contractile effect as a % of 90 mM KCl contraction” value is 0%.
For the molecule `CC(C)(C)C(=O)OCN1C(=O)C2C3C=C(C(O)(c4ccccc4)c4ccccn4)C(C3=C(c3ccccc3)c3ccccn3)C2C1=O` (stereo not drawn) [Compound 8, 5-(α-Hydroxy-α-2-pyridylbenzyl)-N-pivaloyloxymethyl-7-(α-2-pyridylbenzylidene)-5-norbornene-2,3-dicarboximide], the melting point was in the range of 95 to 98 °C. Further, the Emax in the data set with rat caudal artery (setting [4]) is ≥ 132%. For the same molecule, the “Vasoconstriction: maximum contractile effect as a % of 90 mM KCl contraction” value in the data set on rat caudal artery (Table 4, pre-cleavage, n = 3) is “≧132%”.
For `O=C(C=Cc1ccc([N+](=O)[O-])cc1)OCCN1C(=O)C2C3C=C(C(O)(c4ccccc4)c4ccccn4)C(C3=C(c3ccccc3)c3ccccn3)C2C1=O` (stereo not drawn) [Compound 130, 5-(α-Hydroxy-α-2-pyridylbenzyl)-N-[2′-(4″-nitrocinnamoyloxy)ethyl]-7-(α-2-pyridylbenzylidene)-5-norbornene-2,3-dicarboximide], the melting point was 105 to 110 °C. Also, the Emax with rat caudal artery (setting [4]) is 20%.
As to `O=C(OCN1C(=O)C2C3C=C(C(O)(c4ccccc4)c4ccccn4)C(C3=C(c3ccccc3)c3ccccn3)C2C1=O)c1ccccc1` (stereo not drawn) [Compound 12, N-Benzoyloxymethyl-5-(α-hydroxy-α-2-pyridylbenzyl)-7-(α-2-pyridylbenzylidene)-5-norbornene-2,3-dicarboximide], the melting point is 94 to 96 °C. For the same molecule, in the data set with rat caudal artery (setting [4]), the Emax was ≥ 132%. For the same molecule, the “Vasoconstriction: maximum contractile effect as a % of 90 mM KCl contraction” value with rat caudal artery (Table 4, pre-cleavage, n = 3) is “≧132%”.
`CCCCCCCC(=O)OCN1C(=O)C2C3C=C(C(O)(c4ccccc4)c4ccccn4)C(C3=C(c3ccccc3)c3ccccn3)C2C1=O` (stereo not drawn) [Compound 10, 5-(α-Hydroxy-α-2-pyridylbenzyl)-N-octanoyloxymethyl-7-(α-2-pyridylbenzylidene)-5-norbornene-2,3-dicarboximide]: the Emax in the data set on rat caudal artery (setting [4]) is 0%. In the data set on rat caudal artery (Table 4, pre-cleavage, n = 3), the “Vasoconstriction: maximum contractile effect as a % of 90 mM KCl contraction” value is 0%. Also, the “In vivo lethality (i.v.)” value with Sprague Dawley rats [1] (20 mg/Kg, n = 2) is “yes^f”. Besides, in the data set with Sprague Dawley rats [2] (20 mg/Kg), the “Time to Death (min)” value is reported as “not lethal” and the “Onset of Symptoms” value was found to be 15 min. Also, the “In vivo lethality (oral)” value with Sprague Dawley rats [2] (40 mg/Kg, n = 2) is listed as “yes^h”. Also, the mortality at 1 % with Sprague Dawley rats [3] (setting [5]) was 100%.
Consider `CCCC(=O)OCN1C(=O)C2C3C=C(C(O)(c4ccccc4)c4ccccn4)C(C3=C(c3ccccc3)c3ccccn3)C2C1=O` (stereo not drawn) [Compound 9, N-Butanoyloxymethyl-5-(α-hydroxy-α-2-pyridylbenzyl)-7-(α-2-pyridylbenzylidene)-5-norbornene-2,3-dicarboximide], for which the melting point was in the range of 68 to 79 °C. In the data set on rat caudal artery (setting [4]), the Emax is 86%. The “Vasoconstriction: maximum contractile effect as a % of 90 mM KCl contraction” value in the data set on rat caudal artery (Table 4, pre-cleavage, n = 3) is given as 86%.
As to `CC(C)c1ccc(C=CC(=O)OCCN2C(=O)C3C4C=C(C(O)(c5ccccc5)c5ccccn5)C(C4=C(c4ccccc4)c4ccccn4)C3C2=O)cc1` (stereo not drawn) [Compound 347, 5-(α-Hydroxy-α-2-pyridylbenzyl)-N-[2′-(4″-isopropylcinnamoyloxy)ethyl]-7-(α-2-pyridylbenzylidene)-5-norbornene-2,3-dicarboximide], the Emax in the data set with rat caudal artery (setting [4]) is 0%. In the data set with rat caudal artery (Table 4, pre-cleavage, n = 3), the “Vasoconstriction: maximum contractile effect as a % of 90 mM KCl contraction” value was 0%. Also, in the data set on Sprague Dawley rats [2] (20 mg/Kg), the “Time to Death (min)” value was “not lethal” and the “Onset of Symptoms” value came to 20 min. Also, the “In vivo lethality (oral)” value in the data set with Sprague Dawley rats [2] (40 mg/Kg, n = 2) is on record as “yes^h”. In the data set on Sprague Dawley rats [3] (setting [6]), the mortality at 1 % is 50%.
Molecule `COc1cc(C=CC(=O)OCCN2C(=O)C3C4C=C(C(O)(c5ccccc5)c5ccccn5)C(C4=C(c4ccccc4)c4ccccn4)C3C2=O)cc(OC)c1OC` (stereo not drawn) [Compound 133, 5-(α-Hydroxy-α-2-pyridylbenzyl)-7-(α-2-pyridylbenzylidene)-N-[2′-(3″,4″,5″-trimethoxycinnamoyloxy)ethyl]-5-norbornene-2,3-dicarboximide] came in with a melting point of 109 to 113 °C. Further, in the data set on rat caudal artery (setting [4]), the Emax came out at 30%.
Take `NCc1ccc(C(=O)OCCN2C(=O)C3C4C=C(C(O)(c5ccccc5)c5ccccn5)C(C4=C(c4ccccc4)c4ccccn4)C3C2=O)cc1.O=C(O)C(F)(F)F` (stereo not drawn) [Compound 342, N-[2′-(4-Aminomethylbenzoyloxy)ethyl]-5-(α-hydroxy-α-2-pyridylbenzyl)-7-(α-2-pyridylbenzylidene)-5-norbornene-2,3-dicarboximide trifluoroacetate]: the Emax with rat caudal artery (setting [4]) was 136%. Moreover, in the data set on rat caudal artery (Table 4, pre-cleavage, n = 3), the “Vasoconstriction: maximum contractile effect as a % of 90 mM KCl contraction” value is given as 136%. Further, the “In vivo lethality (oral)” value with Sprague Dawley rats [2] (40 mg/Kg, n = 2) is on record as “yes^h”. For the same molecule, the mortality at 1 % with Sprague Dawley rats [3] (setting [5]) is 66.7%.
`CCOc1ccc(C=CC(=O)NCCN2C(=O)C3C4C=C(C(O)(c5ccccc5)c5ccccn5)C(C4=C(c4ccccc4)c4ccccn4)C3C2=O)cc1` (stereo not drawn) [Compound 345, N-[2′-(4″-Ethoxycinnamamido)ethyl]-5-(α-hydroxy-α-2-pyridylbenzyl)-7-(α-2-pyridylbenzylidene)-5-norbornene-2,3-dicarboximide]: the Emax in the data set with rat caudal artery (Table 2, read-out: Vasoconstriction: maximum contractile effect as a % of 90 mM KCl contraction) turned out to be 0%. Besides, in the data set on rat caudal artery (Table 4, pre-cleavage, n = 3), the “Vasoconstriction: maximum contractile effect as a % of 90 mM KCl contraction” value is given as 0%. In the data set on Sprague Dawley rats [2] (20 mg/Kg), the “Time to Death (min)” value was 65^d min and the “Onset of Symptoms” value came out at 15 min. For the same molecule, the “In vivo lethality (oral)” value in the data set with Sprague Dawley rats [2] (20 mg/Kg, n = 2) was “yes^h,i”. Further, the “In vivo lethality (oral)” value in the data set on Sprague Dawley rats [2] (40 mg/Kg, n = 2) is listed as “yes^h,i”. Moreover, the mortality at 1 % in the data set with Sprague Dawley rats [3] (setting [6]) was 33.3%.
`O=C(Cc1ccccc1)OCN1C(=O)C2C3C=C(C(O)(c4ccccc4)c4ccccn4)C(C3=C(c3ccccc3)c3ccccn3)C2C1=O` (stereo not drawn) [Compound 16, 5-(α-Hydroxy-α-2-pyridylbenzyl)-N-phenylacetyloxymethyl-7-(α-2-pyridylbenzylidene)-5-norbornene-2,3-dicarboximide]: the Emax in the data set on rat caudal artery (setting [4]) stood at 15%. Further, in the data set with rat caudal artery (Table 4, pre-cleavage, n = 3), the “Vasoconstriction: maximum contractile effect as a % of 90 mM KCl contraction” value stood at 15%. The “In vivo lethality (i.v.)” value in the data set with Sprague Dawley rats [1] (20 mg/Kg, n = 2) is recorded as “yes^f”. In addition, the “Time to Death (min)” value in the data set with Sprague Dawley rats [2] (20 mg/Kg) is 90^d min. Further, in the data set with Sprague Dawley rats [2] (20 mg/Kg), the “Onset of Symptoms” value came out at 15 min. Also, the “In vivo lethality (oral)” value in the data set with Sprague Dawley rats [2] (20 mg/Kg, n = 2) is listed as “yes^h,i”; with Sprague Dawley rats [2] (40 mg/Kg, n = 2) it was “yes^h,i”. Moreover, the mortality at 1 % with Sprague Dawley rats [3] (setting [5]) was 83.3%.

The values above are taken from US9198420B2, “Rodenticidal norbormide analogues” (priority 2012, dated 2015).
